Measurements reported in patent US20030162803A1, “Anhydrovinblastine for the treatment of cancer” (priority 1997, published 2003).
Where a name gives a salt, the structure may show the parent alone.

Key:
[1] = Murine P388 model in BDF1 mice; assay type: in vivo; conditions: female, mouse, in vivo; single bolus intravenous injection, BDF1 mice bearing P388 tumors; read-out: maximum tolerated dose
Method: (§1) Antitumor studies on mice focussed, in one case, on the P388 leukaemia model. […] This is an ascitic tumor model that was generated by intraperitoneal inoculation of 1×10^6 P388 cells (derived from culture, with an original cell line obtained from the NCI tumor repository) in BDF1 mice (Charles Rivers). One day after tumor cell inoculation, mice were treated with a single intravenous injection of drug. Animal weight was monitored daily and tumor progression was measured as an increase in animal weight and through estimation of survival time. Therapy was described by a decrease in tumor progression and an increase in survival time relative to an untreated control group. Initial studies established the maximum therapeutic dose for AHVB. Subsequently comparative studies with vincristine and Navelbine™ were initiated where animals were treated with each drug at the maximum therapeutic dose.
(§2) The in vivo anti-tumor activity of AHVB was compared to that of vincristine, Navelbine™ in the BDF1-murine P388 model in the procedure as follows. P388 cells were derived from the ascities of previously injected female BDF1 mice (19-21 grams) P388 cells, from the NCI tumor repository were inoculated directly into mice. The cells arrive from NCI frozen in 1 ml aliquots. These samples were thawed rapidly at 37° C. and subsequently injected (within 1 hour) intraperitoneally into two mice, 0.5 ml per mouse. One week (7 days) after inoculation, the tumor cells were harvested by removing peritoneal fluid using a sterile syringe with a 22 gauge needle. The cells, pooled from two animals, were counted using a hemocytometer, diluted (RPMI media) to a concentration of 2×10^6 cells/ml and 0.5 ml was then re-injected into each of two BDF1 mice. Remaining cells were washed and placed into a DMSO containing media and frozen (in freezer packs that cool at a defined rate). This process was repeated weekly over a […]. Cells used for anti-tumor studies were collected from the third passage to the 20th passage. After the 20th passage the cells were no longer used for experimental studies. Newly established cells were derived from the frozen cells prepared as described above.
(§3) Groups (five mice per group) of female BDF1 mice (Charles Rivers, Canada) were injected (intraperitoneal) with 10^6 P388 cells (as described above). One day after tumor cell inoculation, the mice were given a bolus intravenous injection of indicated drug via the lateral tail vein. Control groups were injected with saline. Free drug samples were prepared on the day of injection such that the final concentrations were sufficient to deliver the indicated drug dose in a volume of 200 μl. All dilutions were made using 0.9% Sodium Chloride Injection USP. The mice were briefly (less than 30 sec.) restrained during intravenous injections. Dilation of the vein was achieved by holding the animals under a heat lamp for a period of between five and ten minutes. Following administration of the test articles, animals were weighed daily for fourteen days and monitored for signs of stress twice daily for the first 14 days (once daily on weekends) and once daily for the remainder of the study. Severely distressed animals were terminated by CO2 asphyxiation and the time of death was recorded to occur on the following day. Although complete dose titrations were completed for each drug, the data shown in FIG. 6 is that obtained after administration of the free drugs at their maximum tolerated dose. This was 3, 40 and 40 mg/kg for vincristine, Navelbine™ and AHVB, respectively.
(§4) After treating mice (bearing the P388 tumor) with a single dose of the indicated drug, animals were examined twice daily for the first 14 days (once daily on weekends). Weight gain in the control is an indication of tumor progression.
(§5) The studies were conducted as described for FIG. 6. […]

[2] = tested on: C-4 Human Cervical Carcinoma; assay: C-4 (cervical) solid tumor model; assay type: in vivo, Rag-2 mice
Method: Cultures of C-4 Human Cervical Carcinoma cells are available from the British Columbia Cancer Research Centre. Cells were injected subcutaneously twice into mature male Rag-2 mice (24 mice, 1×10^6 cells/mouse) using a 26-gauge needle. The C-4 cells were suspended in a Hank's Balanced Salt Solution without calcium. Tumors were allowed to form in the mice for 31 days.
When the tumors were well established, four separate groups of mice, were selected for administration of the three test articles (i.e. one group for each test article of AHVB bisulphate, AHVB ditartrate, and Navelbine™) and one control.
AHVB bisulphate and ditartrate, and Navelbine™ were solubilized using 5% dextrose saturated with Argon. These articles were administered at doses of 20 mg/Kg intravenously. Any dose dilutions were made with 5% dextrose.
The articles were administered intravenously on the days 1, 5 and 9, as were controls of 5% dextrose. Body weights and tumor measurements with calipers were taken regularly over the period of the study of 69 days.
Following administration of the test articles, the animals; weight and tumor size (using calipers) were determined regularly over the period of the study. If the tumor size reached I gram in weight or the tumor started to ulcerate, the animals were sacrificed (by carbon dioxide inhalation) and subjected to necropsy. Animals were also monitored at least daily for signs of stress for the full length of the study. Animals manifesting severe symptoms of stress (rapid weight loss, panting, hunched posture, scruffy coat) were also sacrificed and a necropsy performed.
The results of the efficacy studies are given in Table 3 and present averages of data from 6 or fewer animals. Each mouse in a given article group had two subcutaneous tumors on its back. Each tumor was measured in length and width and the volume of each tumor was calculated by […]. The two tumor volumes were then averaged. The volume averages of all the mice/group were averaged to yield a mean for each single date point. The calculation was performed each day the tumors were measured.

[3] = tested on: H460 human non-small cell lung carcinoma, C-4 human cervical carcinoma, K562 human leukaemia, and the A431 human epidermoid cell lines; assay: MTT cytotoxicity assay, 72 hours, panel of human cancer cell lines; assay type: cell-based
P388 tumors = assay: Murine P388 model in BDF1 mice; assay type: in vivo
Method: as §1, §2, §3, §4, §5

[4] = tested on: advanced refractory solid tumors; assay: Phase I clinical trial, disease response; assay type: in vivo, human patients
Method: Patients had normal bone marrow, hepatic and renal function. Twenty-four patients were treated with escalating doses of AHVB, administered as a 1 hour infusion every 3 weeks. The 24 patients comprised 12 male and 12 female patients with a median age of 60 years (range 27-75 years). Twenty-one of the 24 patients were evaluable. Diagnoses were non-small cell lung cancer (NSCLC), colorectal cancer, soft tissue sarcoma, pancreatic cancer, breast cancer and metastatic neuroendocrine cancer in 11, 5, 4, 1, 1, and 1 patient(s), respectively. […] A total of 51 courses were administered at doses of 2.5, 5, 10,16.5, 21,25 and 30 mg/m^2 to 1,3, 1,3, 6, 6 and 1 patient(s), respectively (see Table 4).

nerves = conditions: vs vinblastine, vindesine; cited from earlier work
[5] = 20 mg/kg intravenously on days 1, 5, 9

## CCC1=C[C@@H]2CN(C1)Cc1c([nH]c3ccccc13)[C@@](C(=O)OC)(c1cc3c(cc1OC)N(C)[C@H]1[C@@](O)(C(=O)OC)[C@H](OC(C)=O)[C@]4(CC)C=CCN5CC[C@]31[C@@H]54)C2 [Navelbine, 3′,4′-didehydro-4′-deoxy-C′-norvincaleukoblastine-di-L-tartrate]
[1]
  MTD at 14 days: 40 mg/kg
[2]; [5]
  % Delay In Growth (Dig): 84%
  Initial Growth (Day) Of Expt.: 29 days
  Initial Growth (Day) Total: 59 days
  day tumors reached observable 'growth threshold': 41 days

## CCC1=C[C@H]2CN(CCc3c([nH]c4ccccc34)[C@@](C(=O)OC)(c3cc4c(cc3OC)N(C)[C@H]3[C@@](O)(C(=O)OC)[C@H](OC(C)=O)[C@]5(CC)C=CCN6CC[C@]43[C@@H]65)C2)C1 [AHVB, 3′,4′-anhydrovinblastine]
[3]; drug exposure time 72 hours, range over H460, C-4, K562, A431
  IC50: 20 to 24 nM
[3]; same cell lines
  fold less active than Navelbine in vitro: approximately 10 fold
P388 tumors; 40 mg/kg IV
  onset of acute toxic reaction at maximum tolerated dose: ≤ 1 h
P388 tumors; 40 mg/kg single IV injection vs vincristine 3 mg/kg, FIG. 6
  anti-tumor activity, number of long term survivors (>60 days): significantly better than that observed for vincristine
P388 tumors; mouse, in vivo
  times less toxic (on a weight basis) than vincristine: approximately 10 times
P388 tumors; single IV injection at maximum tolerated dose, 40 mg/kg, FIG. 4
  toxicity (vinca alkaloid induced weight loss): least toxic of the three drugs evaluated
P388 tumors; single bolus intravenous injection, BDF1 mice bearing P388 tumors
  maximum tolerated dose: 40 mg/kg
[2]; human tumor xenografts of cervical cancer, equitoxic doses
  activity compared with vincristine and vinorelbine: superior activity to that of both vincristine and vinorelbine
[4]; metastatic NSCLC, 21 and 25 mg/m^2
  stable disease: three patients
[4]; metastatic sarcoma to lungs, 10 mg/M^2
  stable disease: one patient

## CC[C@]1(O)C[C@H]2CN(CCc3c([nH]c4ccccc34)[C@@](C(=O)OC)(c3cc4c(cc3OC)N(C=O)[C@H]3[C@@](O)(C(=O)OC)[C@H](OC(C)=O)[C@]5(CC)C=CCN6CC[C@]43[C@@H]65)C2)C1 [Vincristine, Sulfate of 22-oxovincaleukoblastine]
[1]
  MTD at 14 days: 3 mg/kg
nerves
  uptake into nerves, times faster than the other drugs: 4 times
